Results from patent US11492335B2, “Aryl or heteroaryl triazolone derivatives or salts thereof, or pharmaceutical compositions comprising the same” (YUHAN CORPORATION, priority 2018, dated 2022).
Structures can show the parent of a compound that is named as a salt. Where two headings read alike, the source gives them in different places.

What was measured:
Assay type in all cases: biochemical
recombinant human VAP-1 = target: T1, recombinant human VAP-1 (Homo sapiens, UniProt Q16853); assay: Activity on recombinant human VAP-1, Amplex Red HRP-coupled hydrogen peroxide assay, benzylamine substrate; conditions: recombinant human VAP-1, benzylamine substrate, read-out: Inhibitory Activity (IC50, nM) human VAP-1
T1 construct: purchased R&D systems
T1 sequence (Q16853 1-763): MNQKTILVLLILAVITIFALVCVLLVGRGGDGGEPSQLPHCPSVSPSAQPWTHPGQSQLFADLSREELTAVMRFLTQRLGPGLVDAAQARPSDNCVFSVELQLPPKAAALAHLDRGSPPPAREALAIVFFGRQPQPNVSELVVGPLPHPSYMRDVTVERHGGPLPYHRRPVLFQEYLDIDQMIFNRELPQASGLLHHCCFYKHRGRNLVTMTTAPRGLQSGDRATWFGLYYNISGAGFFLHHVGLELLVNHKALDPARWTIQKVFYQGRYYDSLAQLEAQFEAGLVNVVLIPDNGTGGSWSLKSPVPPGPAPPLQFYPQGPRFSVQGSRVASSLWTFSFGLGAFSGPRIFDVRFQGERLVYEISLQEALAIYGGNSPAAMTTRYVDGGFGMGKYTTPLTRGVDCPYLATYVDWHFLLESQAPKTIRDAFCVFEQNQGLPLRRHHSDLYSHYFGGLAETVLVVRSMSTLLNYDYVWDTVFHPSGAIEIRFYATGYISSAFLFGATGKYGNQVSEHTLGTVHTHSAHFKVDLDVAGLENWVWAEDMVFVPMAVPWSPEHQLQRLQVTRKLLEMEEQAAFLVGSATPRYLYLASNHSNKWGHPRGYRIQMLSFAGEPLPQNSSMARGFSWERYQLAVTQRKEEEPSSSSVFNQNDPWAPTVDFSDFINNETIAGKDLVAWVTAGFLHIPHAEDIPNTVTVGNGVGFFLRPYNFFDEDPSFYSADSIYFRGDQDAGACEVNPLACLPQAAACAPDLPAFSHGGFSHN
In short: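 Fluorescence of resorufin formed from H2O2 (ex 544 nm, em 590 nm) was tracked for 1-2 h after adding 1 mM benzylamine, 200 uM Amplex Red and 1 U/mL HRP to enzyme pretreated with compound for 30 min at 37 °C. IC50 values derive from four-variable logistic fits.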

[1] = target: T2, recombinant human MAO-A (monoamine oxidase-A) (Homo sapiens, UniProt P21397); assay: Activity on recombinant human MAO-A, Amplex Red method, 0.5 mM tyramine substrate; conditions: read-out: Inhibitory Activity (IC50, nM) MAO-A
T2 construct: purchased Sigma-Aldrich
T2 sequence (P21397 1-527): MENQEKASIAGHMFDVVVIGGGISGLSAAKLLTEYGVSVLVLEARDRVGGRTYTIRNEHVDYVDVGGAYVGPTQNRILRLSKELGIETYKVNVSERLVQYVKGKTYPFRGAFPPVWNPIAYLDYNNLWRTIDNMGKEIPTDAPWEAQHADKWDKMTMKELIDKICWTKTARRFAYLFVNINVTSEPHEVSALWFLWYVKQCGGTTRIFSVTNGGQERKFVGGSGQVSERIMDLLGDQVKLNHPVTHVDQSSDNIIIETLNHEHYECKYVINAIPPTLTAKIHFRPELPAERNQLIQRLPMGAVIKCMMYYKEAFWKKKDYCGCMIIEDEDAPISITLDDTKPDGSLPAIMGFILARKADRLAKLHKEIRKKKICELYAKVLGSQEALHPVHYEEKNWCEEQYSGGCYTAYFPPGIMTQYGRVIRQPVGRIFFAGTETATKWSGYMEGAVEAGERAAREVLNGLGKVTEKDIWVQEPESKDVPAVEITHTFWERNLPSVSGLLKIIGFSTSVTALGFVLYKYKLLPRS
In short: (§1)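 Fluorescence (544/590 nm) of resorufin formed from Amplex Red by HRP and enzyme-generated H2O2 was followed over 1-2 h. Substrates were 0.5 mM tyramine for MAO-A and 1 mM benzylamine for MAO-B; compounds were preincubated with enzyme for 30 min at 37° C. IC50 came from four-parameter logistic fitting of signal-rate inhibition.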

[2] = target: T3, recombinant human MAO-B (monoamine oxidase-B) (Homo sapiens, UniProt P27338); assay: Activity on recombinant human MAO-B, Amplex Red method, 1 mM benzylamine substrate; conditions: read-out: Inhibitory Activity (IC50, nM) MAO-B
T3 construct: purchased Sigma-Aldrich
T3 sequence (P27338 1-520): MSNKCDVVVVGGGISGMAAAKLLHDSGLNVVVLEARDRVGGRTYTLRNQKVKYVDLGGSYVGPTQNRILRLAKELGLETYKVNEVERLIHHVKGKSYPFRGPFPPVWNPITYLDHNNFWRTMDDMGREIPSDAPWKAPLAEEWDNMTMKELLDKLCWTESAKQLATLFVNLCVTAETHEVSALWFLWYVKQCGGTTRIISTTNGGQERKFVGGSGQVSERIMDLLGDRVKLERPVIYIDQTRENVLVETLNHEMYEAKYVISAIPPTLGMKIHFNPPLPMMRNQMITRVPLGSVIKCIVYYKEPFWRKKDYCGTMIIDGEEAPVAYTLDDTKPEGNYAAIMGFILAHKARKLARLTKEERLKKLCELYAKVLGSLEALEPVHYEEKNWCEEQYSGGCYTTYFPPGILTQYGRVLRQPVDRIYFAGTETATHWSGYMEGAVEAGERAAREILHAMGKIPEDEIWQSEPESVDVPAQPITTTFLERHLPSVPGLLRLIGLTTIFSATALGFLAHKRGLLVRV
In short: as §1

[3] = target: T4, recombinant human DAO (diamine oxidase) (Homo sapiens, UniProt P19801); assay: Activity on recombinant human DAO, Amplex Red method, 1 mM putrescine substrate; conditions: recombinant human DAO, read-out: Inhibitory Activity (IC50, nM) DAO
T4 construct: purchased R&D systems
T4 sequence (P19801 20-751): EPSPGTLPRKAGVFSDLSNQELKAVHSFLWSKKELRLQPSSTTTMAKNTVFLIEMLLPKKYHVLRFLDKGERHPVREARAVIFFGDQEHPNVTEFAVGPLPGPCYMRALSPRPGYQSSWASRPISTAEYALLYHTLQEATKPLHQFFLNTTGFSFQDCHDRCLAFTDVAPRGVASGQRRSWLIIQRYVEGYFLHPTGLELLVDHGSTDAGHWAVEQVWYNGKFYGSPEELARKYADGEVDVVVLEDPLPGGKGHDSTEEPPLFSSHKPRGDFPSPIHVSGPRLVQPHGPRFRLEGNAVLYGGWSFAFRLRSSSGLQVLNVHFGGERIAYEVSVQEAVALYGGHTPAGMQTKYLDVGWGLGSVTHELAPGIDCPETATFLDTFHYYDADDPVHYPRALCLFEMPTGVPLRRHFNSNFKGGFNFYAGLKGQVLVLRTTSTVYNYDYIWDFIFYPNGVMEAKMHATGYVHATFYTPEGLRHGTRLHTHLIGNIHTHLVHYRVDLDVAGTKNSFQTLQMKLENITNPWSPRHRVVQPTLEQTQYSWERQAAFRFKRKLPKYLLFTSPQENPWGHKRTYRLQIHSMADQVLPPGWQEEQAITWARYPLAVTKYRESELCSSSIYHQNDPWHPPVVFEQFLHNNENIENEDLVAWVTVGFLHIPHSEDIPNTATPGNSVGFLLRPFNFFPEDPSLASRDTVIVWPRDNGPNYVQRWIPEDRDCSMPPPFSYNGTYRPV
In short: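 Inhibition of recombinant human DAO (diamine oxidase, R&D systems) was assessed with the Amplex Red Hydrogen Peroxide Assay Kit. Hydrogen peroxide produced from 1 mM putrescine was detected through an HRP-coupled reaction that converts Amplex Red into fluorescent resorufin, read at 544 nm excitation and 590 nm emission. IC50 values came from four-parameter logistic fits in GraphPad Prism.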

[4] = 1 mM putrescine, * = between 10 and 100 nM, ** = between 300 and 1000 nM

Compound	IC50 (recombinant human VAP-1) [nM]	IC50 ([1]; 0.5 mM tyramine substrate) [nM]	IC50 ([2]; 1 mM benzylamine substrate) [nM]	IC50 ([3]; 1 mM putrescine substrate) [nM]	IC50 (recombinant human VAP-1; 30 min preincubation at 37° C.) [nM]	IC50 ([1]; 0.5 mM tyramine) [nM]	IC50 ([2]; 1 mM benzylamine) [nM]	IC50 [3, 4] [nM]
NC/C(=C\F)Cn1ncn(-c2cccc(C#Cc3ccc4c(n3)OCCN4)n2)c1=O [Example 253, 2-[(E)-2-(aminomethyl)-3-fluoro-allyl]-4-[6-[2-(2,3-dihydro-1H-pyrido[2,3-b][1,4]oxazin-6-yl)ethynyl]-2-pyridyl]-1,2,4-triazol-3-one]	0.5	> 100000	> 10000	34				
CN1CNc2cc(/C=C/c3cccc(-n4cnn(C/C(=C/F)CN)c4=O)n3)cnc21 [Example 240, 2-[(E)-2-(aminomethyl)-3-fluoro-allyl]-4-[6-[(E)-2-(3-methyl-1,2-dihydroimidazo[4,5-b]pyridin-6-yl)vinyl]-2-pyridyl]-1,2,4-triazol-3-one hydrochloride]	1	> 100000	> 10000	4				
CC(C)Sc1ccc(-c2cccc(-n3cnn(C/C(=C/F)CN)c3=O)c2)cc1 [Example 52, 2-[(2E)-2-(aminomethyl)-3-fluoroprop-2-en-1-yl]-4-[4′-(propan-2-ylsulfanyl)biphenyl-3-yl]-2,4-dihydro-3H-1,2,4-triazol-3-one hydrochloride]					1.2	50000	3600	24
NC/C(=C\F)Cn1ncn(-c2cccc(-c3ccc(-c4ccc5c(c4)OCO5)cc3)c2)c1=O [Example 70, 2-[(2E)-2-(aminomethyl)-3-fluoroprop-2-en-1-yl]-4-[4′-(1,3-benzodioxol-5-yl)biphenyl-3-yl]-2,4-dihydro-3H-1,2,4-triazol-3-one hydrochloride]					0.63	> 100000	1620	< 30
NC/C(=C\F)Cn1ncn(-c2cnc(-c3cccc(-c4nc[nH]n4)c3)cn2)c1=O [Example 219, 2-[(2E)-2-(aminomethyl)-3-fluoroprop-2-en-1-yl]-4-{5-[3-(1H-1,2,4-triazol-3-yl)phenyl]pyrazin-2-yl}-2,4-dihydro-3H-1,2,4-triazol-3-one]	2.3	> 100000	41	< 100				
NC/C(=C\F)Cn1ncn(-c2cccc(-c3cccc(-c4noc(C5CC5)n4)c3)n2)c1=O [Example 179, 2-[(2E)-2-(aminomethyl)-3-fluoroprop-2-en-1-yl]-4-{6-[3-(5-cyclopropyl-1,2,4-oxadiazol-3-yl)phenyl]pyridin-2-yl}-2,4-dihydro-3H-1,2,4-triazol-3-one hydrochloride]	1.1	270000	390	3.1				
NC/C(=C\F)Cn1ncn(-c2cccc(-c3ccc(C(=O)N4CCOCC4)cc3)n2)c1=O [Example 186, 2-[(2E)-2-(aminomethyl)-3-fluoroprop-2-en-1-yl]-4-{6-[4-(morpholin-4-ylcarbonyl)phenyl]pyridin-2-yl}-2,4-dihydro-3H-1,2,4-triazol-3-one hydrochloride]	0.91	> 100000	> 10000	< 10				
Cc1cc(-c2cccc(-n3cnn(C/C(=C/F)CN)c3=O)n2)cc2c1NC(=O)CC2 [Example 197, 6-(6-{1-[(2E)-2-(aminomethyl)-3-fluoroprop-2-en-1-yl]-5-oxo-1,5-dihydro-4H-1,2,4-triazol-4-yl}pyridin-2-yl)-8-methyl-3,4-dihydroquinolin-2(1H)-one hydrochloride]	0.08	81000	250	2.6				
CC(=O)N1CCN(c2ccc(-c3cccc(-n4cnn(C/C(=C/F)CN)c4=O)c3)cc2)CC1 [Example 72, 4-[4′-(4-acetylpiperazine-1-yl)biphenyl-3-yl]-2-[(2E)-2-(aminomethyl)-3-fluoroprop-2-en-1-yl]-2,4-dihydro-3H-1,2,4-triazol-3-one hydrochloride]					1.1	4890	1460	59
Cc1cc(-c2cccc(-n3cnn(C/C(=C/F)CN)c3=O)c2)cn(C)c1=O [Example 89, 5-(3-{1-[(2E)-2-(aminomethyl)-3-fluoroprop-2-en-1-yl]-5-oxo-1,5-dihydro-4H-1,2,4-triazol-4-yl}phenyl)-1,3-dimethylpyridin-2(1H)-one hydrochloride]					0.6	> 100000	> 10000	4.7
Cc1cc(-c2cccc(-c3nnc[nH]3)c2)cnc1-n1cnn(C/C(=C/F)CN)c1=O [Example 137, 2-[(2E)-2-(aminomethyl)-3-fluoroprop-2-en-1-yl]-4-{3-methyl-5-[3-(4H-1,2,4-triazol-3-yl)phenyl]pyridin-2-yl}-2,4-dihydro-3H-1,2,4-triazol-3-one]					0.5	34000	3790	120
